One test addresses T1, human URAT1 (Homo sapiens, UniProt Q96S37).
T1 construct: hURAT1 and rURAT1 are 553 amino acid proteins with 12 transmembrane segments; expressed in transfected cells; host or cells: URAT1-transfected cells (HEK-293T per the transfection section)
T1 sequence (Q96S37 1-553): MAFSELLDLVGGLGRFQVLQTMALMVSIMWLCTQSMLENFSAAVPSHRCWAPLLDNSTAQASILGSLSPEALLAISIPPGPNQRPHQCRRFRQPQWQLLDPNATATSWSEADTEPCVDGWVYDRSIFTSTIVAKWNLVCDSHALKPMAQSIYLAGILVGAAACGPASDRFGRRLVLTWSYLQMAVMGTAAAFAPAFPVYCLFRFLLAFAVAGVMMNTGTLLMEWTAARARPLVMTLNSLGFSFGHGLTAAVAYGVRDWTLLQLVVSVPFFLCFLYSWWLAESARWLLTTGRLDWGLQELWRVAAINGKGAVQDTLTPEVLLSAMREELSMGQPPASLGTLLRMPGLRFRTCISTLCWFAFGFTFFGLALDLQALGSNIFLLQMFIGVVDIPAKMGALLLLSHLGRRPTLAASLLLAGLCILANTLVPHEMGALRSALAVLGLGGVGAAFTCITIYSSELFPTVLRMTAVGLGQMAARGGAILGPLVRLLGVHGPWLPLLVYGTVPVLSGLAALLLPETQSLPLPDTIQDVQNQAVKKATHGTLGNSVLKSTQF
The test is described as follows: ^3H-RDEA3170 URAT1 membrane binding assay. To be noted: human URAT1 membranes; 10 nM ^3H-RDEA3170. As to the method: Membranes were prepared from URAT1-transfected cells. […] Cells were lysed with 100 strokes in a dounce homogenizer using a tight-fitting “B” stem. Lysates were transferred to 1.5 ml Eppendorf tubes and centrifuged at 250 rcf for 5 minutes at 2 °C, and supernatants were transferred to fresh tubes and centrifuged again at 18,000 rcf for 20 minutes at 2 °C. The pellets (membrane fractions) were resuspended in 1 ml of ice-cold binding buffer containing protease inhibitors and frozen at −80 °C. Protein was measured using the Bio-Rad protein assay dye reagent concentrate.
To initiate binding, membranes at 2.5 μg total protein were incubated with ^3H-RDEA3170 for 30 minutes at room temperature. […] The plates were then subjected to scintillation counting. All samples were assayed in triplicate.

The test system of the next test is hURAT1. To be noted: cited from earlier work.
The target of another test is T2, r-h TM7 URAT1 chimera (Rattus norvegicus, UniProt Q3ZAV1, F351C/M354T/Y365F).
T2 construct: expressed in transfected cells; host or cells: HEK-293T
T2 sequence (Q3ZAV1 1-553 F351C/M354T/Y365F): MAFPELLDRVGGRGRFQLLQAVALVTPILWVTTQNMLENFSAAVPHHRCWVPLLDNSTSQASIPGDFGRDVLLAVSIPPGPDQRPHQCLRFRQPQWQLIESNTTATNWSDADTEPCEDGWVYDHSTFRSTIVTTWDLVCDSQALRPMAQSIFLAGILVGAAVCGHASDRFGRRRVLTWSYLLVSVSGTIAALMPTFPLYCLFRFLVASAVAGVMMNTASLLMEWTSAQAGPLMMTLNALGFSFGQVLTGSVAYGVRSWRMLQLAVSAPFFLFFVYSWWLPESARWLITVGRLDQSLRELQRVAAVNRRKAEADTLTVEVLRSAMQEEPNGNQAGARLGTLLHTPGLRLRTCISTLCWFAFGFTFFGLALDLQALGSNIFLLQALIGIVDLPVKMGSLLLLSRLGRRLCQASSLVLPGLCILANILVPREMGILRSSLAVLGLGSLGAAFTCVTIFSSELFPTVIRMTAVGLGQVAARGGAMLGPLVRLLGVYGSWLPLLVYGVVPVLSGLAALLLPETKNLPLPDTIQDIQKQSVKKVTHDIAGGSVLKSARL
The test is described as follows: URAT1 uric acid transport activity assay. In kind it is cell-based, human/rat. The text has this: (§1) hURAT1 (GenBank BC053348.1) and rURAT1 (NCBI NM_001034943.1) genes were purchased from Origene Technologies, Inc. and subcloned into pCMV6/neo using NotI, creating pCMV6/neo-hURAT1 and pCMV6/neo-rURAT1. Mutants were produced by polymerase chain reaction (PCR) or site-directed mutagenesis using the QuikChange Lightning Multi Site-Directed Mutagenesis Kit (Agilent Technologies). […] Detailed methods are provided in Supplementary Methods, and primers are listed in Supplementary Table 1. […] Residues in rURAT1 and hOAT1 that correspond to the residues in hURAT1 were identified from aligned protein sequences (Supplementary Fig. 1)[50].
(§2) DNA (10 μg) was mixed with 30 μl of DreamFect Gold (Boca Scientific) in 2 ml OptiMem (Life Technologies). After 20 minutes, 18 ml of media containing 2 × 10^7 cells in suspension was added and mixed, and 200 μl per well were plated onto white clear-bottomed poly-D-lysine coated 96-well plates (BD Biosciences). The cells were assayed the following day.
(§3) Compounds were serially diluted into assay buffer and added to the cells for 5 minutes prior to addition of radiolabelled uric acid substrate. URAT1-expressing cells were incubated with 100 μM ^14C-uric acid for 10 minutes. […] Each treatment was measured in triplicate.
(§4) Unlabelled uric acid was prepared at a 20 mM stock just prior to use in a solution containing 20 mM dibasic potassium phosphate and 20 mM potassium hydroxide.
(§5) Nonlinear regression analyses using GraphPad Prism software were used to calculate the potency of URAT1 inhibitors (IC50 values) from log (inhibitor) versus response - variable slope (four parameters) equations. Statistical significance was assessed using Student’s unpaired t-tests.

A further test addresses T3, r-h TM11 URAT1 chimera (Rattus norvegicus, UniProt Q3ZAV1, M481I/V474M).
T3 sequence (Q3ZAV1 1-553 V474M/M481I): T2 sequence (Q3ZAV1 1-553 F351C/M354T/Y365F) with C351F, T354M, F365Y, V474M, M481I
The test is described as follows: URAT1 uric acid transport activity assay. In kind it is cell-based, human/rat.
Excerpt: as §1, §2, §3, §4, §5

The source of these data is paper PMC5054527, “Mechanism of high affinity inhibition of the human urate transporter URAT1” (Scientific Reports, 2016).

Substitutions are numbered along the chain they refer to. Read-outs that look alike come from different tables or passages of the source.

In the case of `CCc1oc2ccccc2c1C(=O)c1cc(Br)c(O)c(Br)c1` [benzbromarone], at human URAT1, the “displacement of ^3H-RDEA3170 binding to hURAT1” value (shortened to “displacement”) is “displace binding of the probe”. In addition, the IC50 (commonly the point on the concentration scale where inhibition reaches its midpoint) in the test with hURAT1 was […]; on r-h TM7 URAT1 chimera, 5.7 ± 0.25 µM; against r-h TM11 URAT1 chimera it was 12 ± 0.48 µM.
In the case of `O=C(O)CSc1nnc(Br)n1-c1ccc(C2CC2)c2ccccc12` [lesinurad, 2-((5-bromo-4-(4-cyclopropylnaphthalen-1-yl)-4H-1,2,4-triazol-3-yl)thio)acetic acid], the “displacement” value on human URAT1 is listed as “displace binding of the probe”. For the same compound, the IC50 was 6.9 ± 0.99 µM at r-h TM7 URAT1 chimera (r-h TM7, MES pH 5.5, 100 μM 14C-uric acid, read-out: IC50 (uric acid transport)) and 62 ± 3.6 µM on r-h TM11 URAT1 chimera (r-h TM11, MES pH 5.5, 100 μM 14C-uric acid, read-out: IC50 (uric acid transport)).
As for `O=C1C(CC[S+]([O-])c2ccccc2)C(=O)N(c2ccccc2)N1c1ccccc1` (centres unmarked) [sulfinpyrazone], the “displacement” value on human URAT1 is given as “displace binding of the probe”. The IC50 on r-h TM7 URAT1 chimera (r-h TM7, HEPES pH 7.3, 100 μM 14C-uric acid, read-out: IC50 (uric acid transport)) was found to be 243 ± 22 µM; at r-h TM11 URAT1 chimera (r-h TM11, HEPES pH 7.3, 100 μM 14C-uric acid, read-out: IC50 (uric acid transport)), 342 ± 32 µM.
For `O=c1[nH]c(=O)c2[nH]c(=O)[nH]c2[nH]1` [uric acid], the Km (usually the concentration of substrate that gives half-maximal velocity) in the test with hURAT1 (read-out: Km for the substrate urate) is 371 µM.
